{"source": "patent US8637321B2", "about": "“Lipidomics approaches for central nervous system disorders” (priority 2005, dated 2014)", "key": {"[1]": {"test_system": "patients with schizophrenia", "test": "plasma lipid profiling pre- and post-treatment with antipsychotics", "format": "in vivo, human", "text": "(§1) Fifty male and female patients were recruited in two studies for metabolic profiling (Table VI and Table VII for demographics). Subjects ranged in age from 18 to 60 years and met the following inclusion criteria: a) DSM-IV criteria for schizophrenia, schizophreniform disorder, or schizoaffective disorder; b) newly hospitalized for a psychotic exacerbation in the setting of no antipsychotic treatment for at least 3 weeks prior to admission; and c) provided signed informed consent. Patients with psychoses due to psychoactive substance abuse or an underlying medical condition were excluded. Patients who were receiving treatment for diabetes mellitus or hyperlipidemia were also excluded.\nThe choice and dose of antipsychotic medication was based on the doctor's judgment. […] The treatment duration was 2-3 weeks. […] The mean duration of therapy was about 2 weeks for all 3 drugs in Study II. The drug groups were otherwise generally similar in severity of disease and physical characteristics (Table VI and Table VII). The 2-3 week duration permits the study of acute early effects.\nAll blood samples were drawn from subjects in the early morning after overnight fasting. Blood was drawn into vacutainer tubes containing sodium heparin, immediately placed on ice, and within 10 minutes, the blood was centrifuged and the plasma was transferred into polypropylene tubes and stored in a −30° C. freezer. All baseline samples were drawn prior to starting antipsychotic treatment in the study. If a patient had received a dose of an antipsychotic during the referral process (e.g., because of agitation when initially seen in a local emergency department), drawing of baseline plasma samples was delayed for 2-3 days. Follow-up samples were drawn after patients had received an average of 2-3 weeks of acute antipsychotic treatment.\nA comprehensive assessment of plasma lipid profiles was performed (Lipomics Technologies, West Sacramento, Calif.) according to established methods (Watkins, et al. (2002) J. Lipid Res. 43(11):1809-17). Quantitative measurements of fatty acids in various lipid classes were determined as nmol fatty acid/gram of plasma. Lipid classes included cholesterol esters (CE), free cholesterol (FC), triacylglycerols (TG), diacylglycerols (DG), free fatty acids (FA), lysophosphatidylcholine (LY), phosphatidylcholine (PC), and phosphatidylethanolamine (PE). Lipid metabolites are identified by the lipid class and the fatty acid moiety. In the context of this invention, fatty acids are identified first by the number of carbons in the molecule (e.g., 20), the number of double bonds in the molecule (e.g., 4), and lastly the position of the double bonds (e.g., n6). To illustrate, PC20:4n6 denotes a phosphatidylcholine molecule containing a 20 carbon fatty acid with 4 double bonds at the n6 position.\nSignificant differences between pre- and post-drug treatment were assessed by paired t-tests. Evaluation of response to drug was assessed by two-way ANOVA. All statistics were done using R with the following functions: t.test, anova, prcomp, and g/m (Team RDC (2005) R: A language and environment for statistical computing. R Foundation for Statistical Computing). Before beginning statistical analyses, change detection was used to determine if observed signals were greater than that which could be expected by chance (noise). The chance distribution of p-values was determined by permuting the outcome groupings (Golub, et al. (1999) Science 286(5439):531-7). Briefly, P values for the appropriate comparison were calculated for each metabolite using a Student's t-test. The metabolites were ranked by p value from smallest to largest. The log of the rank versus the log of the p value for each comparison of interest was plotted and is represented by a colored line. The distribution of p values expected by chance at each rank is indicated by the shaded area. […]"}, "[2]": {"test_system": "patients with schizophrenia", "test": "Clinical Global Impressions (CGI) Scale psychopathology assessment", "format": "in vivo, human", "details": "means and standard error; for CGI Affective, Post / CGI Negative, Post / CGI Positive, Post: CGI Scale 1 to 7, higher scores greater severity; for CGI Change, Post: overall global change rating at follow-up (1-2 responders, 3-6 non-responders)", "text": "as §1\nThe choice and dose of antipsychotic medication was based on the doctor's judgment. […] The treatment duration was 2-3 weeks. […] The 2-3 week duration permits the study of acute early effects.\nPsychopathology was assessed on the Clinical Global Impressions (CGI) Scale at baseline and at the time of follow-up blood draws. Scores for the CGI Scale can range from 1 to 7, with higher scores indicating greater severity of illness (Guy (1975) ECDEU Assessment Manual for Psychopharmacology: Publication ADM 76-338. Washington, D.C.: US Department of Health, Education, and Welfare). An overall global change rating was also made at the time of the follow-up blood draw."}, "[3]": {"test_system": "fatty acid elongation and desaturation (delta 5 desaturase, delta 6 desaturase, elongase)", "test": "pathway analysis: lipid synthesis enzyme activities estimated from fatty acid ratios", "format": "in vivo, human", "procedure": "Estimates of lipid synthesis enzyme activities were calculated using the precursor to product ratios for each enzyme. The following ratios were used: 18:3n6/18:2n6 for delta 6 desaturase; 20:3n6/18:3n6 for delta 6 elongase; 20:4n6/20:3n6 for delta 5 desaturase; 22:4n6/20:4n6 for elongase; 24:4n6/22:4n6 for elongase; 24:5n6/24:4n6 for delta 6 desaturase. The absolute numbers for each fatty acid metabolite were used for calculating metabolite changes.\nTo characterize fatty acid elongation and desaturation processes that might be modified in schizophrenia, various ratios of products to substrates in different fatty acid pathways were determined and are summarized in Table VIII."}, "[4]": {"details": "cited from earlier work"}, "[5]": {"details": "Study I, plasma, post-treatment vs pre-treatment"}, "[6]": {"details": "Study II, plasma, post-treatment vs pre-treatment"}, "[7]": {"details": "plasma, mole percentage data, post treatment compared with pretreatment"}, "[8]": {"details": "plasma, total lipid class data (nmol/g sample), post treatment compared with pretreatment"}, "[9]": {"details": "Study I, after 2-3 weeks treatment"}, "[10]": {"details": "Study II, about 2 weeks treatment"}}}
{"smiles": "Cc1nc2n(c(=O)c1CCN1CCC(c3noc4cc(F)ccc34)CC1)CCCC2", "note": "[Risperidone, risperidone]", "values": [{"measurement": "concentration of arachidonic acid, AA (20:4n6)", "setting": "[1]; Study I, plasma lipid classes, post-treatment vs pre-treatment", "result": "not significantly altered"}, {"measurement": "CE concentration", "setting": "[1]; [5]", "result": "trend toward an increase"}, {"measurement": "DG concentration", "setting": "[1]; [5]", "result": "trend toward an increase"}, {"measurement": "FA (free fatty acid) class concentration", "setting": "[1]; [5]", "result": "decrease"}, {"measurement": "LY class concentration", "setting": "[1]; [5]", "result": "increase"}, {"measurement": "PC class concentration", "setting": "[1]; [5]", "result": "increased"}, {"measurement": "PE class concentration", "setting": "[1]; [5]", "result": "increased"}, {"measurement": "TG concentration", "setting": "[1]; [5]", "result": "trend toward an increase"}, {"measurement": "concentration of linoleic acid (18:2n6) and its immediate metabolic products 18:3n6 and 20:3n6", "setting": "[1]; [5]", "result": "increased"}, {"measurement": "concentration of saturated fatty acids in PE, PC and LY", "setting": "[1]; [5]", "result": "increased"}, {"measurement": "concentration of total n6 and n3 fatty acids in PE, PC and LY", "setting": "[1]; [5]", "result": "increased"}, {"measurement": "n7 and n9 free fatty acids", "setting": "[1]; [5]", "result": "decreases"}, {"measurement": "DG concentration", "setting": "[1]; [6]", "result": "significantly increased"}, {"measurement": "PC18:3n6 concentration", "setting": "[1]; [6]", "result": "increased"}, {"measurement": "PC20:2n6 concentration", "setting": "[1]; [6]", "result": "increased"}, {"measurement": "PC20:3n6 concentration", "setting": "[1]; [6]", "result": "increased"}, {"measurement": "PC concentration", "setting": "[1]; [6]", "result": "increased"}, {"measurement": "PE concentration", "setting": "[1]; [6]", "result": "increased"}, {"measurement": "TG concentration", "setting": "[1]; [6]", "result": "significantly increased"}, {"measurement": "concentration of PC20:4n6 (arachidonic acid)", "setting": "[1]; [6]", "result": "did not change"}, {"measurement": "reduction in 18:0 in patients with schizophrenia", "setting": "[1]; after treatment, FIG. 1", "result": "essentially reversed"}, {"measurement": "triacylglycerol and phospholipid content of the plasma", "setting": "[1]; following treatment", "result": "increased"}, {"measurement": "fatty acid synthesis", "setting": "[1]; inferred from 16:1n7, 18:1n7 and 18:1n9 concentrations", "result": "less evident"}, {"measurement": "CE18:3n3 I/D", "setting": "[1]; [7]", "result": "I"}, {"measurement": "DG18:3n6 I/D", "setting": "[1]; [7]", "result": "I"}, {"measurement": "FA16:0 I/D", "setting": "[1]; [7]", "result": "I"}, {"measurement": "FA18:0 I/D", "setting": "[1]; [7]", "result": "I"}, {"measurement": "FA20:4n6 I/D", "setting": "[1]; [7]", "result": "I"}, {"measurement": "FA20:5n3 I/D", "setting": "[1]; [7]", "result": "I"}, {"measurement": "FA24:0 I/D", "setting": "[1]; [7]", "result": "I"}, {"measurement": "FA.SFA I/D", "setting": "[1]; [7]", "result": "I"}, {"measurement": "LY18:0 I/D", "setting": "[1]; [7]", "result": "I"}, {"measurement": "LY18:1n9 I/D", "setting": "[1]; [7]", "result": "I"}, {"measurement": "LY18:3n6 I/D", "setting": "[1]; [7]", "result": "I"}, {"measurement": "LY20:1n9 I/D", "setting": "[1]; [7]", "result": "I"}, {"measurement": "LY20:2n6 I/D", "setting": "[1]; [7]", "result": "I"}, {"measurement": "LY20:3n9 I/D", "setting": "[1]; [7]", "result": "I"}, {"measurement": "LY20:4n3 I/D", "setting": "[1]; [7]", "result": "I"}, {"measurement": "LY.n9 I/D", "setting": "[1]; [7]", "result": "I"}, {"measurement": "PC14:0 I/D", "setting": "[1]; [7]", "result": "I"}, {"measurement": "PC16:1n7 I/D", "setting": "[1]; [7]", "result": "I"}, {"measurement": "PC18:0 I/D", "setting": "[1]; [7]", "result": "I"}, {"measurement": "PC18:1n9 I/D", "setting": "[1]; [7]", "result": "I"}, {"measurement": "PC18:3n3 I/D", "setting": "[1]; [7]", "result": "I"}, {"measurement": "PC18:3n6 I/D", "setting": "[1]; [7]", "result": "I"}, {"measurement": "PC20:2n6 I/D", "setting": "[1]; [7]", "result": "I"}, {"measurement": "PC20:3n9 I/D", "setting": "[1]; [7]", "result": "I"}, {"measurement": "PC20:4n3 I/D", "setting": "[1]; [7]", "result": "I"}, {"measurement": "PC20:5n3 I/D", "setting": "[1]; [7]", "result": "I"}, {"measurement": "PC.n9 I/D", "setting": "[1]; [7]", "result": "I"}, {"measurement": "PE18:1n9 I/D", "setting": "[1]; [7]", "result": "I"}, {"measurement": "PE.n9 I/D", "setting": "[1]; [7]", "result": "I"}, {"measurement": "TG14:0 I/D", "setting": "[1]; [7]", "result": "I"}, {"measurement": "TG14:1n5 I/D", "setting": "[1]; [7]", "result": "I"}, {"measurement": "TG18:0 I/D", "setting": "[1]; [7]", "result": "I"}, {"measurement": "TG18:3n6 I/D", "setting": "[1]; [7]", "result": "I"}, {"measurement": "TG20:0 I/D", "setting": "[1]; [7]", "result": "I"}, {"measurement": "TG20:3n6 I/D", "setting": "[1]; [7]", "result": "I"}, {"measurement": "TG20:4n3 I/D", "setting": "[1]; [7]", "result": "I"}, {"measurement": "TG20:5n3 I/D", "setting": "[1]; [7]", "result": "I"}, {"measurement": "LYLC I/D", "setting": "[1]; [8]", "result": "I"}, {"measurement": "PCLC I/D", "setting": "[1]; [8]", "result": "I"}, {"measurement": "PELC I/D", "setting": "[1]; [8]", "result": "I"}, {"measurement": "levels of arachidonic and docosahexaenoic acids (20:4n6 and 22:6n3)", "setting": "[1]; present studies, after treatment", "result": "remained essentially the same"}, {"measurement": "CGI Affective, Post", "setting": "[2]; [9]", "result": "1.7 ± 0.3"}, {"measurement": "CGI Negative, Post", "setting": "[2]; [9]", "result": "2 ± 0.4"}, {"measurement": "CGI Positive, Post", "setting": "[2]; [9]", "result": "2.6 ± 0.2"}, {"measurement": "CGI Change, Post", "setting": "[2]; Study I", "result": "2.9 ± 0.3"}, {"measurement": "CGI Affective, Post", "setting": "[2]; [10]", "result": "1.2 ± 0.2"}, {"measurement": "CGI Negative, Post", "setting": "[2]; [10]", "result": "1.4 ± 0.2"}, {"measurement": "CGI Positive, Post", "setting": "[2]; [10]", "result": "3 ± 0.3"}, {"measurement": "CGI Change, Post", "setting": "[2]; Study II", "result": "3 ± 0.3"}, {"measurement": "apparent delta 5 desaturase activity", "setting": "[3]; estimated from 20:4n6/20:3n6 in phosphatidylcholine, FIGS. 5A and 5B", "result": "decreased"}, {"measurement": "alterations of fatty acid ratios in patients with schizophrenia", "setting": "[3]; following treatment", "result": "essentially reversed toward normal ranges"}, {"measurement": "effect on serum lipids", "setting": "[4]; in vivo", "result": "discrepant data"}, {"measurement": "weight gain, mean increases during the first year of therapy", "setting": "[4]; prospective data", "result": "4.4-5.1 lbs"}]}
